Assay results from ChEMBL document CHEMBL5260810, “Inhibition of bromodomain-containing protein 9 for the prevention of epigenetically-defined drug resistance” (Bioorg Med Chem Lett, 2017).
Activity calls are given as the source filed them. The rule behind the calls is not given here.

What was measured:
HCC70 = assay: Cytotoxicity against human HCC70 cells measured after 3 days; type: functional, cell-based; settings: HCC70, 72 h
[1] = Cytotoxicity against human OVCA 420 cells measured after 3 days; type: functional, cell-based; settings: OVCA 420, 72 h
[2] = Cytotoxicity against human KMS-26 cells measured after 3 days; type: functional, cell-based; settings: KMS-26, 72 h
MDA-MB-453 = assay: Cytotoxicity against human MDA-MB-453 cells measured after 3 days; type: functional, cell-based; settings: MDA-MB-453, 72 h
[3] = Cytotoxicity against human Ri-1 cells measured after 3 days; type: functional, cell-based; settings: Ri-1, 72 h
[4] = Cytotoxicity against human NCE-G 112 cells measured after 3 days; type: functional, cell-based; settings: NCE-G 112, 72 h
[5] = Cytotoxicity against human NCE-G 130 cells measured after 3 days; type: functional, cell-based; settings: NCE-G 130, 72 h
SU-DHL-5 = assay: Cytotoxicity against human SU-DHL-5 cells measured after 3 days; type: functional, cell-based; settings: SU-DHL-5, 72 h
Calu-6 = assay: Cytotoxicity against human Calu-6 cells after 8 days; type: functional, cell-based; settings: Calu-6, 192 h
[6] = Cytotoxicity against human HCC89 cells measured after 3 days; type: functional, cell-based; settings: HCC89, 72 h
[7] = Cytotoxicity against human NCE-G 140 cells measured after 3 days; type: functional, cell-based; settings: NCE-G 140, 72 h
HT = assay: Cytotoxicity against human HT cells measured after 3 days; type: functional, cell-based; settings: 72 h
PA-1 = assay: Cytotoxicity against human PA-1 cells measured after 3 days; type: functional, cell-based; settings: PA-1, 72 h
OAW-28 = assay: Cytotoxicity against human OAW28 cells measured after 3 days; type: functional, cell-based; settings: OAW-28, 72 h
SUM149PT = assay: Cytotoxicity against human SUM149PT cells measured after 3 days; type: functional, cell-based; settings: 72 h
[8] = Cytotoxicity against human KMS-21BM cells measured after 3 days; type: functional, cell-based; settings: 72 h
NCI-H1793 = assay: Cytotoxicity against human NCI-H1793 cells measured after 8 days; type: functional, cell-based; settings: NCI-H1793, 192 h
HCC1143 = assay: Cytotoxicity against human HCC1143 cells measured after 3 days; type: functional, cell-based; settings: HCC1143, 72 h
NCI-H460 [9] = assay: Cytotoxicity against human NCI-H460 cells measured after 3 days; type: functional, cell-based; settings: NCI-H460, 72 h
SKM-1 = assay: Cytotoxicity against human SKM-1 cells measured after 3 days; type: functional, cell-based; settings: SKM-1, 72 h
Raji = assay: Cytotoxicity against human Raji cells measured after 3 days; type: functional, cell-based; settings: 72 h
HLE = assay: Cytotoxicity against human HLE cells measured after 3 days; type: functional, cell-based; settings: 72 h
[10] = Cytotoxicity against human EFM-192C cells measured after 3 days; type: functional, cell-based; settings: 72 h
[11] = Cytotoxicity against human PL-21 cells measured after 3 days; type: functional, cell-based; settings: PL-21, 72 h
G-402 = assay: Cytotoxicity against human G-402 cells measured after 3 days; type: functional, cell-based; settings: G-402, 72 h
PC-9 [12] = assay: Cytotoxicity against human PC-9 cells assessed as reduction in drug tolerant population at 2 uM supplemented with fresh medium containing compound every 3 days for 9 days in presence of erlotinib by Beckman Coulter counting method relative to control; type: functional; set-up: scale not given: the % may be the effect or the level left; settings: time 9 day
[13] = Cytotoxicity against human Hs 38.T cells measured after 3 days; type: functional, cell-based; settings: 72 h
U-698-M = assay: Cytotoxicity against human U-698-M cells measured after 3 days; type: functional, cell-based; settings: 72 h
Daudi = assay: Cytotoxicity against human Daudi cells measured after 3 days; type: functional, cell-based; settings: 72 h
NCI-H1734 = assay: Cytotoxicity against human NCI-H1734 cells measured after 3 days; type: functional, cell-based; settings: NCI-H1734, 72 h
Jurkat = assay: Cytotoxicity against human Jurkat cells measured after 3 days; type: functional, cell-based; settings: 72 h
MDA-MB-361 = assay: Cytotoxicity against human MDA-MB-361 cells measured after 3 days; type: functional, cell-based; settings: MDA-MB-361, 72 h
TMD8 = assay: Cytotoxicity against human TMD8 cells measured after 3 days; type: functional, cell-based; settings: TMD8, 72 h
[14] = Cytotoxicity against human KPL-4 cells measured after 3 days; type: functional, cell-based; settings: KPL4, 72 h
[15] = Cytotoxicity against human HuH-1 cells measured after 3 days; type: functional, cell-based; settings: HuH-1, 72 h
CWR22R = assay: Cytotoxicity against human 22Rv1 cells after 8 days; type: functional, cell-based; settings: 22Rv1, 192 h
[16] = Cytotoxicity against human Hs 839.T cells measured after 3 days; type: functional, cell-based; settings: 72 h
[17] = Cytotoxicity against human HCC15 cells after 8 days; type: functional, cell-based; settings: HCC15, 192 h
786-0 = assay: Cytotoxicity against human 786-0 cells measured after 3 days; type: functional, cell-based; settings: 786-0, 72 h
K562 = assay: Cytotoxicity against human K562 cells measured after 3 days; type: functional, cell-based; settings: K562, 72 h
[18] = Cytotoxicity against human Sc-1 cells measured after 3 days; type: functional, cell-based; settings: SC-1, 72 h
MC116 = assay: Cytotoxicity against human MC116 cells measured after 3 days; type: functional, cell-based; settings: MC116, 72 h
[19] = Cytotoxicity against human HCC630 cells measured after 3 days; type: functional, cell-based; settings: HCC630, 72 h
SU-DHL10 = assay: Cytotoxicity against human SU-DHL-10 cells measured after 3 days; type: functional, cell-based; settings: SU-DHL10, 72 h
[20] = Lipophilicity, log D of the compound at pH 7.4; type: physicochemical; settings: buffer
JIYOYE = assay: Cytotoxicity against human JIYOYE cells measured after 3 days; type: functional, cell-based; settings: 72 h
HBL-100 = assay: Cytotoxicity against human HBL-100 cells measured after 3 days; type: functional, cell-based; settings: HBL-100, 72 h
EFM-19 = assay: Cytotoxicity against human EFM-19 cells measured after 3 days; type: functional, cell-based; settings: EFM-19, 72 h
[21] = Cytotoxicity against human JHH-4 cells measured after 3 days; type: functional, cell-based; settings: JHH-4, 72 h
AU565 = assay: Cytotoxicity against human AU565 cells measured after 3 days; type: functional, cell-based; settings: AU565, 72 h
OVCAR-3 = assay: Cytotoxicity against human OVCAR-3 cells measured after 3 days; type: functional, cell-based; settings: OVCAR-3, 72 h
HMV-2 cell line = assay: Antiproliferative activity against human HMV-2 cell line assessed as reduction in colony formation up to 20 uM supplemented with fresh medium containing compound every 3 days for 9 days by MTT staining based clonogenic assay; type: functional; settings: time 9.0 day
A-375 = assay: Antiproliferative activity against human A-375 cells assessed as reduction in colony formation up to 20 uM supplemented with fresh medium containing compound every 3 days for 9 days by MTT staining based clonogenic assay; type: functional, cell-based; settings: time 9.0 day
PC-9 [22] = assay: Antiproliferative activity against human PC-9 cells assessed as reduction in colony formation upto 20 uM supplemented with fresh medium containing compound every 3 days for 9 days by MTT staining based clonogenic assay; type: functional, cell-based; settings: time 9.0 day
NCI-H1299 = assay: Antiproliferative activity against human NCI-H1299 cells assessed as reduction in colony formation up to 20 uM supplemented with fresh medium containing compound every 3 days for 9 days by MTT staining based clonogenic assay; type: functional, cell-based; settings: time 9.0 day
A2058 = assay: Antiproliferative activity against human A2058 cells assessed as reduction in colony formation upto 20 uM supplemented with fresh medium containing compound every 3 days for 9 days by MTT staining based clonogenic assay; type: functional, cell-based; settings: time 9.0 day
NCI-H460 [23] = assay: Antiproliferative activity against human NCI-H460 cells assessed as reduction in colony formation up to 20 uM supplemented with fresh medium containing compound every 3 days for 9 days by MTT staining based clonogenic assay; type: functional, cell-based; settings: time 9.0 day

## C/C=C/Cn1cc(-c2cc(OC)c(C(=O)N3CCOCC3)cc2OC)c2cc(C)[nH]c2c1=O
HCC70
  IC50: 5 µM
[1]
  IC50: 5 µM
[2]
  IC50: 5 µM
MDA-MB-453
  IC50: 5 µM
[3]
  IC50: 5 µM
[4]
  IC50: 5 µM
[5]
  IC50: 5 µM
SU-DHL-5
  IC50: 5 µM
Calu-6
  IC50: 2 µM
[6]
  IC50: 5 µM
[7]
  IC50: 5 µM
HT
  IC50: 5 µM
PA-1
  IC50: 5 µM
OAW-28
  IC50: 5 µM
SUM149PT
  IC50: 5 µM
[8]
  IC50: 5 µM
NCI-H1793
  IC50: 2 µM
HCC1143
  IC50: 5 µM
NCI-H460 [9]
  IC50: 5 µM
SKM-1
  IC50: 5 µM
Raji
  IC50: 5 µM
HLE
  IC50: 5 µM
[10]
  IC50: 5 µM
[11]
  IC50: 5 µM
G-402
  IC50: 5 µM
PC-9 [12]
  Activity: >60%
[13]
  IC50: 5 µM
U-698-M
  IC50: 5 µM
Daudi
  IC50: 5 µM
NCI-H1734
  IC50: 5 µM
Jurkat
  IC50: 5 µM
MDA-MB-361
  IC50: 5 µM
TMD8
  IC50: 5 µM
[14]
  IC50: 5 µM
[15]
  IC50: 5 µM
CWR22R
  IC50: 2 µM
[16]
  IC50: 5 µM
[17]
  IC50: 2 µM
786-0
  IC50: 5 µM
K562
  IC50: 5 µM
[18]
  IC50: 5 µM
MC116
  IC50: 5 µM
[19]
  IC50: 5 µM
SU-DHL10
  IC50: 5 µM
[20]
  logD: 2.4
JIYOYE
  IC50: 5 µM
HBL-100
  IC50: 5 µM
EFM-19
  IC50: 5 µM
[21]
  IC50: 5 µM
AU565
  IC50: 5 µM
OVCAR-3
  IC50: 5 µM

## C/C=C/Cn1cc(-c2ccc(C(C)(C)O)cc2OC)c2cc[nH]c2c1=O
HMV-2 cell line
  Activity: inactive
A-375
  Activity: inactive
PC-9 [22]
  Activity: Active
NCI-H1299
  Activity: inactive
A2058
  Activity: inactive
NCI-H460 [23]
  Activity: inactive
